Earlier results, collected in patent publication US9987253B2, “Cannabinoid receptor antagonists/inverse agonists useful for treating metabolic disorders, including obesity and diabetes” (Jenrin Discovery, priority 2012, dated 2018).

Conditions: type 2 diabetes patients not treated with other anti-diabetic medications, six months, baseline 7.9

Cc1c(C(=O)NN2CCCCC2)nn(-c2ccc(Cl)cc2Cl)c1-c1ccc(Cl)cc1 [rimonabant]
HbA1c levels lowered: 0.8%
